Data taken from patent US10835533B2, “1 -((3S,4R)-4-(3-fluorophenyl)-1-(2-methoxyethyl)pyrrolidin-3-yl)-3-(4-methyl-3-(2-methylpyrimidin-5-yl)-1-phenyl-1H-pyrazol-5-yl)urea as a TrkA kinase inhibitor” (Array BioPharma Inc., priority 2014, dated 2020).

Legend:
Assay in all cases: KinaseProfiler kinase profiling
Format in all cases: biochemical
Settings in all cases: 10 μM, ATP near Km
AKT3 = target: T1, AKT3 (Homo sapiens, UniProt Q9Y243)
T1 construct: purchased Millipore, Inc. (KinaseProfiler service)
Experimental: (§1) Compound 1 was tested for off-target kinase activity at a concentration of 10 μM by Millipore, Inc. in their KinaseProfiler™ service against all the kinases available in their full kinase panel. Compound 1 was run in duplicate at a concentration of ATP near the Km for each individual kinase according to Millipore's specifications. Data are reported as percent of control (POC) and are the average of the two replicates.

ALK = target: T2, ALK (Homo sapiens, UniProt Q9UM73)
T2 construct: purchased Millipore, Inc. (KinaseProfiler service)
Experimental: as §1

AMPK(A1/B1/G1) = target: T3, AMPK(A1/B1/G1) (Homo sapiens, UniProt Q13131)
T3 construct: purchased Millipore, Inc. (KinaseProfiler service)
Experimental: as §1

Abl2 = target: T4, Abl2 (Homo sapiens, UniProt P42684)
T4 construct: purchased Millipore, Inc. (KinaseProfiler service)
Experimental: as §1

Bmx = target: T5, Bmx (Homo sapiens, UniProt P51813)
T5 construct: purchased Millipore, Inc. (KinaseProfiler service)
Experimental: as §1

CAMK1d = target: T6, CAMK1d (Homo sapiens, UniProt Q8IU85)
T6 construct: purchased Millipore, Inc. (KinaseProfiler service)
Experimental: as §1

CDK2/cyclinA = target: T7, CDK2/cyclinA (Homo sapiens, UniProt P24941)
T7 construct: purchased Millipore, Inc. (KinaseProfiler service)
Experimental: as §1

CK1gamma2 = target: T8, CK1gamma2 (Homo sapiens, UniProt P78368)
T8 construct: purchased Millipore, Inc. (KinaseProfiler service)
Experimental: as §1

CK1gamma3 = target: T9, CK1gamma3 (Homo sapiens, UniProt Q9Y6M4)
T9 construct: purchased Millipore, Inc. (KinaseProfiler service)
Experimental: as §1

EphA2 = target: T10, EphA2 (Homo sapiens, UniProt P29317)
T10 construct: purchased Millipore, Inc. (KinaseProfiler service)
Experimental: as §1

EphA5 = target: T11, EphA5 (Homo sapiens, UniProt P54756)
T11 construct: purchased Millipore, Inc. (KinaseProfiler service)
Experimental: as §1

EphA7 = target: T12, EphA7 (Homo sapiens, UniProt Q15375)
T12 construct: purchased Millipore, Inc. (KinaseProfiler service)
Experimental: as §1

EphA8 = target: T13, EphA8 (Homo sapiens, UniProt P29322)
T13 construct: purchased Millipore, Inc. (KinaseProfiler service)
Experimental: as §1

EphB3 = target: T14, EphB3 (Homo sapiens, UniProt P54753)
T14 construct: purchased Millipore, Inc. (KinaseProfiler service)
Experimental: as §1

FAK2 = target: T15, FAK2 (Homo sapiens, UniProt Q14289)
T15 construct: purchased Millipore, Inc. (KinaseProfiler service)
Experimental: as §1

Fer = target: T16, Fer (Homo sapiens, UniProt P16591)
T16 construct: purchased Millipore, Inc. (KinaseProfiler service)
Experimental: as §1

Fms = target: T17, Fms (Homo sapiens, UniProt P07333)
T17 construct: purchased Millipore, Inc. (KinaseProfiler service)
Experimental: as §1

HIPK1 = target: T18, HIPK1 (Homo sapiens, UniProt Q86Z02)
T18 construct: purchased Millipore, Inc. (KinaseProfiler service)
Experimental: as §1

IGF-1R Activated = target: T19, IGF-1R Activated (Homo sapiens, UniProt P08069)
T19 construct: purchased Millipore, Inc. (KinaseProfiler service)
Experimental: as §1

ITK = target: T20, ITK (Homo sapiens, UniProt Q08881)
T20 construct: purchased Millipore, Inc. (KinaseProfiler service)
Experimental: as §1

JAK2 = target: T21, JAK2 (Homo sapiens, UniProt O60674)
T21 construct: purchased Millipore, Inc. (KinaseProfiler service)
Experimental: as §1

JAK3 = target: T22, JAK3 (Homo sapiens, UniProt P52333)
T22 construct: purchased Millipore, Inc. (KinaseProfiler service)
Experimental: as §1

JNK1alpha1 = target: T23, JNK1alpha1 (Homo sapiens, UniProt P45983)
T23 construct: purchased Millipore, Inc. (KinaseProfiler service)
Experimental: as §1

LKB1 = target: T24, LKB1 (Homo sapiens, UniProt Q15831)
T24 construct: purchased Millipore, Inc. (KinaseProfiler service)
Experimental: as §1

Lyn = target: T25, Lyn (Homo sapiens, UniProt P07948)
T25 construct: purchased Millipore, Inc. (KinaseProfiler service)
Experimental: as §1

MARK1 = target: T26, MARK1 (Homo sapiens, UniProt Q9P0L2)
T26 construct: purchased Millipore, Inc. (KinaseProfiler service)
Experimental: as §1

MKK6 = target: T27, MKK6 (Homo sapiens, UniProt P52564)
T27 construct: purchased Millipore, Inc. (KinaseProfiler service)
Experimental: as §1

MKK7 = target: T28, MKK7 (Homo sapiens, UniProt O14733)
T28 construct: purchased Millipore, Inc. (KinaseProfiler service)
Experimental: as §1

NEK3 = target: T29, NEK3 (Homo sapiens, UniProt P51956)
T29 construct: purchased Millipore, Inc. (KinaseProfiler service)
Experimental: as §1

PKCepsilon = target: T30, PKCepsilon (Homo sapiens, UniProt Q02156)
T30 construct: purchased Millipore, Inc. (KinaseProfiler service)
Experimental: as §1

PKCzeta = target: T31, PKCzeta (Homo sapiens, UniProt Q05513)
T31 construct: purchased Millipore, Inc. (KinaseProfiler service)
Experimental: as §1

PTK6 = target: T32, PTK6 (Homo sapiens, UniProt Q13882)
T32 construct: purchased Millipore, Inc. (KinaseProfiler service)
Experimental: as §1

PhKgamma2 = target: T33, PhKgamma2 (Homo sapiens, UniProt P15735)
T33 construct: purchased Millipore, Inc. (KinaseProfiler service)
Experimental: as §1

Plk1 = target: T34, Plk1 (Homo sapiens, UniProt P53350)
T34 construct: purchased Millipore, Inc. (KinaseProfiler service)
Experimental: as §1

RIPK2 = target: T35, RIPK2 (Homo sapiens, UniProt O43353)
T35 construct: purchased Millipore, Inc. (KinaseProfiler service)
Experimental: as §1

SGK2 = target: T36, SGK2 (Homo sapiens, UniProt Q9HBY8)
T36 construct: purchased Millipore, Inc. (KinaseProfiler service)
Experimental: as §1

Src = target: T37, Src (Homo sapiens, UniProt P12931)
T37 construct: purchased Millipore, Inc. (KinaseProfiler service)
Experimental: as §1

TAO3 = target: T38, TAO3 (Homo sapiens, UniProt Q9H2K8)
T38 construct: purchased Millipore, Inc. (KinaseProfiler service)
Experimental: as §1

Yes = target: T39, Yes (Homo sapiens, UniProt P07947)
T39 construct: purchased Millipore, Inc. (KinaseProfiler service)
Experimental: as §1

ZAP-70 = target: T40, ZAP-70 (Homo sapiens, UniProt P43403)
T40 construct: purchased Millipore, Inc. (KinaseProfiler service)
Experimental: as §1

p38delta = target: T41, p38delta (Homo sapiens, UniProt O15264)
T41 construct: purchased Millipore, Inc. (KinaseProfiler service)
Experimental: as §1

T16 sequence (P16591 whole entry): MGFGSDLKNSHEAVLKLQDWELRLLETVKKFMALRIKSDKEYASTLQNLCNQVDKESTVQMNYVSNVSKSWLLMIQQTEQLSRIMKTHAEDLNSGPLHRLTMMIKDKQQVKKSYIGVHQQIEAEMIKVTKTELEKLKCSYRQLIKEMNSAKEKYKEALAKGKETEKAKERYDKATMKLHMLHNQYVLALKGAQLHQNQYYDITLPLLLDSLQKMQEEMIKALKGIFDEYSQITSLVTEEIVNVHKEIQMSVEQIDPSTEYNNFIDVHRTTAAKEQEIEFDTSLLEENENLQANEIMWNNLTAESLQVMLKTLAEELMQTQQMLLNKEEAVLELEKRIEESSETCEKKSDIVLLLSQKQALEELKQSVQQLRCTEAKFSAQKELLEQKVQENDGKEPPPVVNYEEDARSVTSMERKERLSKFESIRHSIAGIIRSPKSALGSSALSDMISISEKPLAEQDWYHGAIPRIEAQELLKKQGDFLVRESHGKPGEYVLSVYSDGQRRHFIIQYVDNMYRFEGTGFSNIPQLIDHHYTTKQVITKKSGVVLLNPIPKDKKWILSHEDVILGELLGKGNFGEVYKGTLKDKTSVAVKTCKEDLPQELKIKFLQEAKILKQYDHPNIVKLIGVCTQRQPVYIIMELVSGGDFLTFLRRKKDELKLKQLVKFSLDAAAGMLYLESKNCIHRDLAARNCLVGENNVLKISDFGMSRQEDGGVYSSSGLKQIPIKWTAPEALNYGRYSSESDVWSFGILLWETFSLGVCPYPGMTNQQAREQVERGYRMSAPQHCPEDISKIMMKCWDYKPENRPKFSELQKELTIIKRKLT
T5 sequence (P51813 whole entry): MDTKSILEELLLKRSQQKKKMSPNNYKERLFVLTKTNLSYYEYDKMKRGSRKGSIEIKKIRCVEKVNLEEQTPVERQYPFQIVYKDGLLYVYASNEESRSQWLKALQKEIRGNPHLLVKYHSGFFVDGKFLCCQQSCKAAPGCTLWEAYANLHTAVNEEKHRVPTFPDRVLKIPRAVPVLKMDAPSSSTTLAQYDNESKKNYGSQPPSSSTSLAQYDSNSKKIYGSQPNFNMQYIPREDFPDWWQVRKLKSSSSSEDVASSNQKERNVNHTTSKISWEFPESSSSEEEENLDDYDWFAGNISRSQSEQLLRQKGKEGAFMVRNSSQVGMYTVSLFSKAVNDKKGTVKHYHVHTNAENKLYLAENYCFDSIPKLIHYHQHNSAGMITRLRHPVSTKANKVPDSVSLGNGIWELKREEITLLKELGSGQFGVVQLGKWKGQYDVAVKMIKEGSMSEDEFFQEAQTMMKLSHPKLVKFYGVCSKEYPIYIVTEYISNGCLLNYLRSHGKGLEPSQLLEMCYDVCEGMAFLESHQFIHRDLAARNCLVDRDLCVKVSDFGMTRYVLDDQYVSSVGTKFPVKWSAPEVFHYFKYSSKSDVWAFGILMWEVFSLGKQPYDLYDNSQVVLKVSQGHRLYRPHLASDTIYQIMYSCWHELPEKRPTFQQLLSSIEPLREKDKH
T27 sequence (P52564 whole entry): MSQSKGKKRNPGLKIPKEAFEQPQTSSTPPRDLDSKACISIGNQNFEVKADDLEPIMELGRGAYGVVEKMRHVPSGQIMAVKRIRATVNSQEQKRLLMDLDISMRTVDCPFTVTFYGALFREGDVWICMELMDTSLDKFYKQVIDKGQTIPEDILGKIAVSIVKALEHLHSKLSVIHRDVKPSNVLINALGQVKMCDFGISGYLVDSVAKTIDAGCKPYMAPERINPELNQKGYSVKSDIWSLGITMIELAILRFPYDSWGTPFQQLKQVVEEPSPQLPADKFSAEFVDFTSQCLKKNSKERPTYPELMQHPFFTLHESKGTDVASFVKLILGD
T38 sequence (Q9H2K8 whole entry): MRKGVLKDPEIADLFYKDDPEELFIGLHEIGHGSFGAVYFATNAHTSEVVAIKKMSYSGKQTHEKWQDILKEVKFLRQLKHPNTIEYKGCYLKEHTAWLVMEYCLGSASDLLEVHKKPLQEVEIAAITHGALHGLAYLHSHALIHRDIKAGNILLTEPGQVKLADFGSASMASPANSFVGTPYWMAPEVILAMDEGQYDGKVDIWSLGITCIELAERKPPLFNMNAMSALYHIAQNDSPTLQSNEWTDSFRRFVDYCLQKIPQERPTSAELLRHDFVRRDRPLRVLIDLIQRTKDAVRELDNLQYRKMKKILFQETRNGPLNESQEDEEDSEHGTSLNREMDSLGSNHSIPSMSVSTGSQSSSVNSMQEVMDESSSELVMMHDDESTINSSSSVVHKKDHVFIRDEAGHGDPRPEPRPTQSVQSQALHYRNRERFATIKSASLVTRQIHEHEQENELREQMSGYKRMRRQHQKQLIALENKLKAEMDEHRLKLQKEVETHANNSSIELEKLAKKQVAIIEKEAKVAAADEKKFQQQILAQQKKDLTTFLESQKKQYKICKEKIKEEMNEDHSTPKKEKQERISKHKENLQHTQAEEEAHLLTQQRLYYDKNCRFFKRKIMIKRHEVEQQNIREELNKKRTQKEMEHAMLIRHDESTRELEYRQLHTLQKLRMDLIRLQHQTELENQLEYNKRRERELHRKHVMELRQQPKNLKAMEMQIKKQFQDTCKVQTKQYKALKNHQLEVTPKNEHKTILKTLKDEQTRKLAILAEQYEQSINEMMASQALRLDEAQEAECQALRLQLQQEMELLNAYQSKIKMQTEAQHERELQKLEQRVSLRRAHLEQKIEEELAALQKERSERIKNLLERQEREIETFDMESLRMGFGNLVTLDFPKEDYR
T1 sequence (Q9Y243 whole entry): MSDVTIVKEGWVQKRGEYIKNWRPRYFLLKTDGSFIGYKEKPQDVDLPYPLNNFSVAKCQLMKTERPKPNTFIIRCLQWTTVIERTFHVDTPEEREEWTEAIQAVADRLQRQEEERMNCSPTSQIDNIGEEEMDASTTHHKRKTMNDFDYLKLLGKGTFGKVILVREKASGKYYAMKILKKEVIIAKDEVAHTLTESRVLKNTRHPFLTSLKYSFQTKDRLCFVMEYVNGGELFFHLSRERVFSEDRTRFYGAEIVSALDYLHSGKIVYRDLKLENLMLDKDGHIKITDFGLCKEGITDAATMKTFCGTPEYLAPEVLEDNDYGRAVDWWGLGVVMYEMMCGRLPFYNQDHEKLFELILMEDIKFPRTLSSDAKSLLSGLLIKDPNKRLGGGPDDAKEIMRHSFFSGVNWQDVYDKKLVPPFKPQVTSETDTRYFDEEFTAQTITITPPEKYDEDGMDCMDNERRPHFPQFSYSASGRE
T28 sequence (O14733 whole entry): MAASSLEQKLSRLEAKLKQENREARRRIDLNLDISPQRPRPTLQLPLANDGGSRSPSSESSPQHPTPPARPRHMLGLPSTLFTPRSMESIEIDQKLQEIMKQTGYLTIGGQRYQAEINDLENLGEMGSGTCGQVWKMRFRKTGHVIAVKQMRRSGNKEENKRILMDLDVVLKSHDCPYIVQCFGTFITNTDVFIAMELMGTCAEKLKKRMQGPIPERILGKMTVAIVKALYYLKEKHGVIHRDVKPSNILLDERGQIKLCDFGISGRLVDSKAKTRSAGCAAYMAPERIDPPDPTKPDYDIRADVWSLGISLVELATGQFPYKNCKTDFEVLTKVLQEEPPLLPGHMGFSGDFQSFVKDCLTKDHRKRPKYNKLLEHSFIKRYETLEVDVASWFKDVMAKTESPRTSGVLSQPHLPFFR
T3 sequence (Q13131 whole entry): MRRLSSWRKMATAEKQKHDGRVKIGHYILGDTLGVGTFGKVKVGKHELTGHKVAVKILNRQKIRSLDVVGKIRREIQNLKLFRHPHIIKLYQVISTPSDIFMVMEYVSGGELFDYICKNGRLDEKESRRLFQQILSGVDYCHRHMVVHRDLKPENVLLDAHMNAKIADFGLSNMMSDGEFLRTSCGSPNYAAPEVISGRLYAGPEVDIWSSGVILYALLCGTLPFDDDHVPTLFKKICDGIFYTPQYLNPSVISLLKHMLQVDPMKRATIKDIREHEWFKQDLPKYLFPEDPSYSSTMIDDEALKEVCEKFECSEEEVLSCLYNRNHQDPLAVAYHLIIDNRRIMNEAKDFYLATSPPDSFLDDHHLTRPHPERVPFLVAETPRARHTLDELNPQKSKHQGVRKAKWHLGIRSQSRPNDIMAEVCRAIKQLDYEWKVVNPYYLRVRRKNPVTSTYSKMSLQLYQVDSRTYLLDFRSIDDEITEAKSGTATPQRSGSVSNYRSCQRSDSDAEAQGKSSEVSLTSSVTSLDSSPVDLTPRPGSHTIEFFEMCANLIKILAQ
T3 sequence (Q9Y478 whole entry partner): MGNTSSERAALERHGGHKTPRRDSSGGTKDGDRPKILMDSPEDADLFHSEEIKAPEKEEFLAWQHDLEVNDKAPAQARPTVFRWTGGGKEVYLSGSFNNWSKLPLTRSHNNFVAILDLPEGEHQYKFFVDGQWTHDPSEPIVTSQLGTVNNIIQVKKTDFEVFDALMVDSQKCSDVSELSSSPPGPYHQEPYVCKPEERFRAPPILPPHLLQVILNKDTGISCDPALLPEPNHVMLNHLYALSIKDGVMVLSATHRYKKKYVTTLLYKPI
T3 sequence (P54619 whole entry partner): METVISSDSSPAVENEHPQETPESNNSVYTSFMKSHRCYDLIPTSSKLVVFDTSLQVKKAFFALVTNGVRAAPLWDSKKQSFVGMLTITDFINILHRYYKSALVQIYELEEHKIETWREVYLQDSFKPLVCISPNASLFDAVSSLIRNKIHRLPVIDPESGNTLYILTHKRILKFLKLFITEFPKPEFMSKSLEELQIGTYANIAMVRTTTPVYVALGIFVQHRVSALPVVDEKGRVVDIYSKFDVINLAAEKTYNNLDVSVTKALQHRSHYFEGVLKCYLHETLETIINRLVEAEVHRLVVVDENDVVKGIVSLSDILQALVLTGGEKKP

Avg POC (AKT3): 113.5 POC
Avg POC (ALK): 89 POC
Avg POC (AMPK(A1/B1/G1)): 102.5 POC
Avg POC (Abl2): 110.5 POC
Avg POC (Bmx): 91.5 POC
Avg POC (CAMK1d): 130 POC
Avg POC (CDK2/cyclinA): 94.5 POC
Avg POC (CK1gamma2): 61.5 POC
Avg POC (CK1gamma3): 104.5 POC
Avg POC (EphA2): 92.5 POC
Avg POC (EphA5): 109.5 POC
Avg POC (EphA7): 109 POC
Avg POC (EphA8): 110 POC
Avg POC (EphB3): 89.5 POC
Avg POC (FAK2): 92.5 POC
Avg POC (Fer): 103.5 POC
Avg POC (Fms): 103 POC
Avg POC (HIPK1): 98.5 POC
Avg POC (IGF-1R Activated): 105 POC
Avg POC (ITK): 104 POC
Avg POC (JAK2): 126 POC
Avg POC (JAK3): 95.5 POC
Avg POC (JNK1alpha1): 95 POC
Avg POC (LKB1): 104.5 POC
Avg POC (Lyn): 104.5 POC
Avg POC (MARK1): 100 POC
Avg POC (MKK6): 107.5 POC
Avg POC (MKK7): 125 POC
Avg POC (NEK3): 104.5 POC
Avg POC (PKCepsilon): 101.5 POC
Avg POC (PKCzeta): 97.5 POC
Avg POC (PTK6): 106 POC
Avg POC (PhKgamma2): 108 POC
Avg POC (Plk1): 99.5 POC
Avg POC (RIPK2): 90.5 POC
Avg POC (SGK2): 112 POC
Avg POC (Src): 120 POC
Avg POC (TAO3): 103 POC
Avg POC (Yes): 98.5 POC
Avg POC (ZAP-70): 104.5 POC
Avg POC (p38delta): 105 POC
Structure (SMILES): COCCN1C[C@@H](NC(=O)Nc2c(C)c(-c3cnc(C)nc3)nn2-c2ccccc2)[C@H](c2cccc(F)c2)C1 [Compound 1, 1-((3S,4R)-4-(3-fluorophenyl)-1-(2-methoxyethyl)pyrrolidin-3-yl)-3-(4-methyl-3-(2-methylpyrimidin-5-yl)-1-phenyl-1H-pyrazol-5-yl)urea]
